Measurements: ChEMBL document CHEMBL2073959, “The human bile salt export pump: characterization of substrate specificity and identification of inhibitors” (Gastroenterology, 2002)

Columns and labels:
Bile salt export pump [1] = molecular target: T1, Bile salt export pump (Homo sapiens, UniProt O95342); assay: TP_TRANSPORTER: competitive inhibition of Taurocholate uptake in membrane vesicles prepared from High Five cells infected with the ABCB11 baculovirus; type: functional, cell membranes, BTI-TN-5B1-4, Membrane vesicle
T1 sequence (O95342 whole entry): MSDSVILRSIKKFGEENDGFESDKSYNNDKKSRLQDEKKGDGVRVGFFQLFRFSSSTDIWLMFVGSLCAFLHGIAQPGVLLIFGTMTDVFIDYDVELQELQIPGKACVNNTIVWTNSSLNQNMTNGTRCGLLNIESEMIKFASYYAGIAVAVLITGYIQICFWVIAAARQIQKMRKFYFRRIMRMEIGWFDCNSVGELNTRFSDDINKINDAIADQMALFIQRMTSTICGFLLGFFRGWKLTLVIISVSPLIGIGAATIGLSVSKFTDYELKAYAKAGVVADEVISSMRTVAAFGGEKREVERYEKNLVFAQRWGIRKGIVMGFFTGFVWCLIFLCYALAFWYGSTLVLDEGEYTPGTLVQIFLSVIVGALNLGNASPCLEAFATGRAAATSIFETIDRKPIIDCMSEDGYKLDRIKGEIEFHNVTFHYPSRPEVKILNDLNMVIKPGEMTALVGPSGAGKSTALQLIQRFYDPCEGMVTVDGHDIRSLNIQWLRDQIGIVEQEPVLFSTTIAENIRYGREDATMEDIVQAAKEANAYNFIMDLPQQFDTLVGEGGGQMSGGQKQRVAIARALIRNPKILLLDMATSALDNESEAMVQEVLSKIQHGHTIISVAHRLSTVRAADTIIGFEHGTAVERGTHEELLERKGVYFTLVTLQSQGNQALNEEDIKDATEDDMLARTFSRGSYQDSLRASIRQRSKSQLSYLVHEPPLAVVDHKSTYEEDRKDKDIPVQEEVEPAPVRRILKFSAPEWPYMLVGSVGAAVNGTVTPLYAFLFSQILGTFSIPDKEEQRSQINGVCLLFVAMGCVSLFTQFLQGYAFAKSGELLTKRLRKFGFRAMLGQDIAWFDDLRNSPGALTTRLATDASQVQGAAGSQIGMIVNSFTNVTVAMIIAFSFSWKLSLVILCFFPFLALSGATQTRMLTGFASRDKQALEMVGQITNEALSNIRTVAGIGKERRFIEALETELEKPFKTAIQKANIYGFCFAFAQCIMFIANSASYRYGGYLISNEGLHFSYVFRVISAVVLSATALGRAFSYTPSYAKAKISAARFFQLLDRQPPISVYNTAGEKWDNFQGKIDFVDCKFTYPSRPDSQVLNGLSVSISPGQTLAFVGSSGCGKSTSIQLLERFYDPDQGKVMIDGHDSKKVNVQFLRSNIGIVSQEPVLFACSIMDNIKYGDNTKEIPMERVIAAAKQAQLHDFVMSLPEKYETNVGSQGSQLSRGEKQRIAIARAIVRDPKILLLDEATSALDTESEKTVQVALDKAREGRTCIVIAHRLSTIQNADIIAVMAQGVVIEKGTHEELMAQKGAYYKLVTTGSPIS

Bile salt export pump [2] = molecular target: T1, Bile salt export pump; assay: TP_TRANSPORTER: inhibition of Taurocholate uptake(Rifampicin SV 30uM, 50 % of control) in membrane vesicles prepared from High Five cells infected with the ABCB11 baculovirus; type: functional, cell membranes, BTI-TN-5B1-4, Membrane vesicle

Ki (Bile salt export pump [1])	Ki (Bile salt export pump [2])	Compound
11 µM	–	C[C@H](CCC(=O)NCC(=O)O)[C@H]1CC[C@H]2[C@@H]3[C@H](O)C[C@@H]4C[C@H](O)CC[C@]4(C)[C@H]3C[C@H](O)[C@]12C [GLYCOCHOLIC ACID]
–	31 µM	CO[C@H]1/C=C/O[C@@]2(C)Oc3c(C)c(O)c4c(O)c(cc(O)c4c3C2=O)NC(=O)/C(C)=C\C=C\[C@H](C)[C@H](O)[C@@H](C)[C@@H](O)[C@@H](C)[C@H](OC(C)=O)[C@@H]1C [RIFAMYCIN]
28 µM	–	C[C@H](CCC(=O)NCCS(=O)(=O)O)[C@H]1CC[C@H]2[C@@H]3[C@H](O)C[C@@H]4C[C@H](O)CC[C@]4(C)[C@H]3CC[C@]12C [TAUROCHENODEOXYCHOLATE]

Compound	Ki (Bile salt export pump [1])	Ki (Bile salt export pump [2])
C[C@H](CCC(=O)NCC(=O)O)[C@H]1CC[C@H]2[C@@H]3[C@H](O)C[C@@H]4C[C@H](O)CC[C@]4(C)[C@H]3CC[C@]12C [GLYCOCHENODEOXYCHOLATE]	7 µM	–
